Data: PubChem BioAssay AID2060902 (Molecular Pharmacology Branch, DTP, NCI, 2025)

System: 485368-065-R3-J5-PDC spheroids with HUVEC/MSC, viability
Assay: Anticancer human tumor 485368-065-R3-J5-PDC patient-derived pancreatic carcinoma cell line growth inhibition [RAS]
Settings: for viability, T/C: stronger effect = lower value
Procedure, shortened: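 Tumour cells grown as complex spheroids with HUVEC endothelial cells and mesenchymal stem cells, treated with RAS pathway inhibitor combinations. Each agent spans half-log steps from near clinical Cmax, or 10 microM where Cmax is unknown.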

[1] = curve of first compound, second compound 0.0316 µM
[2] = curve of first compound, second compound 0.1 µM
[3] = curve of first compound, second compound 0.316 µM
[4] = curve of first compound, second compound 1 µM
[5] = curve of first compound, second compound 3.16 µM
[6] = curve of first compound, second compound 10 µM
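Note: spheroids exposed to agents for seven days before readout.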

For CCc1c2c(nc3ccc(O)cc13)-c1cc3c(c(=O)n1C2)COC(=O)[C@]3(O)CC + C#Cc1c(F)ccc2cc(O)cc(-c3ncc4c(N5CC6CCC(C5)N6)nc(OCC56CCCN5CC(F)C6)nc4c3F)c12, the IC50 [1] was 2.01 nM, the IC50 [2] was 2.04 nM and the IC50 [3] was 2.04 nM. It also gave an IC50 [4] of 2.19 nM, an IC50 [5] of 1.66 nM and an IC50 [6] of under 0.949 nM. It also gave a viability, T/C (second compound 0.0316 µM, first compound 0.000949 µM) of 79.6%, a viability, T/C (second compound 0.0316 µM, first compound 0.003 µM) of 34% and a viability, T/C (second compound 0.0316 µM, first compound 0.00949 µM) of 14.3%. It also gave a viability, T/C (second compound 0.0316 µM, first compound 0.03 µM) of 7.01%, a viability, T/C (second compound 0.0316 µM, first compound 0.0949 µM) of 5.19% and a viability, T/C (second compound 0.0316 µM, first compound 0.3 µM) of 2.88%. It also gave a viability, T/C (second compound 0.1 µM, first compound 0.000949 µM) of 82.5%, a viability, T/C (second compound 0.1 µM, first compound 0.003 µM) of 33.7% and a viability, T/C (second compound 0.1 µM, first compound 0.00949 µM) of 12.5%. The viability, T/C (second compound 0.1 µM, first compound 0.03 µM) was 7.37%, the viability, T/C (second compound 0.1 µM, first compound 0.0949 µM) was 4.36% and the viability, T/C (second compound 0.1 µM, first compound 0.3 µM) was 3.26%. It also gave a viability, T/C (second compound 0.316 µM, first compound 0.000949 µM) of 82.5%, a viability, T/C (second compound 0.316 µM, first compound 0.003 µM) of 33.4% and a viability, T/C (second compound 0.316 µM, first compound 0.00949 µM) of 13.3%. For the same compound, the viability, T/C (second compound 0.316 µM, first compound 0.03 µM) was 5.82%, the viability, T/C (second compound 0.316 µM, first compound 0.0949 µM) was 5.07% and the viability, T/C (second compound 0.316 µM, first compound 0.3 µM) was 3.14%. For the same compound, the viability, T/C (second compound 1 µM, first compound 0.000949 µM) was 91.2%, the viability, T/C (second compound 1 µM, first compound 0.003 µM) was 33.6% and the viability, T/C (second compound 1 µM, first compound 0.00949 µM) was 14.8%. For the same compound, the viability, T/C (second compound 1 µM, first compound 0.03 µM) was 6.95%, the viability, T/C (second compound 1 µM, first compound 0.0949 µM) was 4.29% and the viability, T/C (second compound 1 µM, first compound 0.3 µM) was 3.15%. For the same compound, the viability, T/C (second compound 3.16 µM, first compound 0.000949 µM) was 71.5%, the viability, T/C (second compound 3.16 µM, first compound 0.003 µM) was 26.7% and the viability, T/C (second compound 3.16 µM, first compound 0.00949 µM) was 12.9%. For the same compound, the viability, T/C (second compound 3.16 µM, first compound 0.03 µM) was 7.69%, the viability, T/C (second compound 3.16 µM, first compound 0.0949 µM) was 4.04% and the viability, T/C (second compound 3.16 µM, first compound 0.3 µM) was 2.84%. It also gave a viability, T/C (second compound 10 µM, first compound 0.000949 µM) of 28.2%, a viability, T/C (second compound 10 µM, first compound 0.003 µM) of 19.4% and a viability, T/C (second compound 10 µM, first compound 0.00949 µM) of 11.2%. For the same compound, the viability, T/C (second compound 10 µM, first compound 0.03 µM) was 5.94%, the viability, T/C (second compound 10 µM, first compound 0.0949 µM) was 3.93% and the viability, T/C (second compound 10 µM, first compound 0.3 µM) was 3.41%.

With C#Cc1c(F)ccc2cc(O)cc(-c3ncc4c(N5CC6CCC(C5)N6)nc(OCC56CCCN5CC(F)C6)nc4c3F)c12 (stereo not drawn) the viability, T/C (compound 0.0316 µM) was 105% [middle of 8 runs], the viability, T/C (compound 0.1 µM) was 108% [middle of 8 runs] and the viability, T/C (compound 0.316 µM) was 100% [middle of 8 runs]. For the same compound, the viability, T/C (compound 1 µM) was 99.4% [middle of 8 runs], the viability, T/C (compound 3.16 µM) was 76.5% [middle of 8 runs] and the viability, T/C (compound 10 µM) was 42.4% [middle of 8 runs]. The IC50 (compound alone, run of 07/15/2024) was 7.73 µM [middle of 8 runs].

Compound CC(=O)OC12COC1CC(O)C1(C)C(=O)C(O)C3=C(C)C(OC(=O)C(O)C(NC(=O)OC(C)(C)C)c4ccccc4)CC(O)(C(OC(=O)c4ccccc4)C21)C3(C)C (stereo not drawn) + C#Cc1c(F)ccc2cc(O)cc(-c3ncc4c(N5CC6CCC(C5)N6)nc(OCC56CCCN5CC(F)C6)nc4c3F)c12 has an IC50 [1] of under 31.6 nM, an IC50 [2] of under 31.6 nM and an IC50 [3] of under 31.6 nM. The IC50 [4] was under 31.6 nM, the IC50 [5] was under 31.6 nM and the IC50 [6] was under 31.6 nM. For the same compound, the viability, T/C (second compound 0.0316 µM, first compound 0.0316 µM) was 12.5%, the viability, T/C (second compound 0.0316 µM, first compound 0.1 µM) was 12.5% and the viability, T/C (second compound 0.0316 µM, first compound 0.316 µM) was 13%. For the same compound, the viability, T/C (second compound 0.0316 µM, first compound 1 µM) was 12.7%, the viability, T/C (second compound 0.0316 µM, first compound 3.16 µM) was 18.7% and the viability, T/C (second compound 0.0316 µM, first compound 10 µM) was 23.6%. The viability, T/C (second compound 0.1 µM, first compound 0.0316 µM) was 11%, the viability, T/C (second compound 0.1 µM, first compound 0.1 µM) was 10.2% and the viability, T/C (second compound 0.1 µM, first compound 0.316 µM) was 14.2%. For the same compound, the viability, T/C (second compound 0.1 µM, first compound 1 µM) was 14.4%, the viability, T/C (second compound 0.1 µM, first compound 3.16 µM) was 19.8% and the viability, T/C (second compound 0.1 µM, first compound 10 µM) was 16.9%. The viability, T/C (second compound 0.316 µM, first compound 0.0316 µM) was 13%, the viability, T/C (second compound 0.316 µM, first compound 0.1 µM) was 13.3% and the viability, T/C (second compound 0.316 µM, first compound 0.316 µM) was 17.1%. For the same compound, the viability, T/C (second compound 0.316 µM, first compound 1 µM) was 14.9%, the viability, T/C (second compound 0.316 µM, first compound 3.16 µM) was 15.4% and the viability, T/C (second compound 0.316 µM, first compound 10 µM) was 14.4%. The viability, T/C (second compound 1 µM, first compound 0.0316 µM) was 11.2%, the viability, T/C (second compound 1 µM, first compound 0.1 µM) was 13.9% and the viability, T/C (second compound 1 µM, first compound 0.316 µM) was 12.4%. It also gave a viability, T/C (second compound 1 µM, first compound 1 µM) of 16.5%, a viability, T/C (second compound 1 µM, first compound 3.16 µM) of 14.7% and a viability, T/C (second compound 1 µM, first compound 10 µM) of 26.3%. The viability, T/C (second compound 3.16 µM, first compound 0.0316 µM) was 11.3%, the viability, T/C (second compound 3.16 µM, first compound 0.1 µM) was 9.14% and the viability, T/C (second compound 3.16 µM, first compound 0.316 µM) was 12%. It also gave a viability, T/C (second compound 3.16 µM, first compound 1 µM) of 15.7%, a viability, T/C (second compound 3.16 µM, first compound 3.16 µM) of 19.1% and a viability, T/C (second compound 3.16 µM, first compound 10 µM) of 16.1%. It also gave a viability, T/C (second compound 10 µM, first compound 0.0316 µM) of 12.9%, a viability, T/C (second compound 10 µM, first compound 0.1 µM) of 11.2% and a viability, T/C (second compound 10 µM, first compound 0.316 µM) of 10.8%. The viability, T/C (second compound 10 µM, first compound 1 µM) was 14.3%, the viability, T/C (second compound 10 µM, first compound 3.16 µM) was 14.7% and the viability, T/C (second compound 10 µM, first compound 10 µM) was 19.1%.

With CC(Nc1ccc2c(c1)OCCn1cc(N3C(=O)OCC3C(F)F)nc1-2)C(N)=O (stereo not drawn) the viability, T/C (compound 0.0316 µM) was 96.7% [middle of 4 runs], the viability, T/C (compound 0.1 µM) was 90% [middle of 4 runs] and the viability, T/C (compound 0.316 µM) was 99.2% [middle of 4 runs]. The viability, T/C (compound 1 µM) was 82.1% [middle of 4 runs], the viability, T/C (compound 3.16 µM) was 82% [middle of 4 runs] and the viability, T/C (compound 10 µM) was 58.4% [middle of 4 runs]. It also gave an IC50 (curve of compound) of over 10000 nM.
